Consider three compounds from patent US10864229B2, “Use of nitrite salts in chronic ischemia” (priority 2007, dated 2020).

Like-named read-outs stand apart in the source and are kept apart here.

Series [1] relates to mouse hind-limb ischemia model. It is filed as in vivo, mouse (C57BL/6J). As to the method: (§1) Laser Doppler measurements of tissue blood flow. The Vasamedics Laserflo BPM2 deep tissue penetrating laser doppler device was used to measure hind limb blood flow. The tip of laser probe was placed with stable positioning using a probe stand over the medial calf muscle of mice. Readings were recorded in ml of blood flow per 100 g tissue per minute from non-ischemic and ischemic limbs. Daily blood flow measurements were taken before the first nitrite or nitrate injection of a 24 hour period in order to obtain representative steady state changes in perfusion. Percent change in tissue blood flow was determined by dividing ischemic limb blood flow by non-ischemic limb blood flow and multiplied by 100. In a separate series of experiments, blood flow was also measured within 30 seconds after nitrite or nitrate administration to assess acute changes in blood flow.
Stimulation of angiogenesis alone during chronic ischemia is generally insufficient for restoring tissue perfusion. Increased arteriogenesis through the recruitment and differentiation of smaller arterioles is important to supply newly formed microvasculature. Moreover, an acute increase in vascular shear stress due to increased blood flow is a critical mediator of arteriogenesis. We examined the effect of 165 μg/kg sodium nitrite on acute changes (30 sec) in ischemic and nonischemic tissue perfusion according to the method in Example 1. Ten mice were used per treatment group.

Series [2] deals with mouse hind-limb ischemia model. The series can be described thus: Laser Doppler hind-limb blood flow, chronic treatment in hind-limb ischemia model. It is filed as in vivo, mouse (C57BL/6J).
Text: (§2) Animals and Reagents. Unless otherwise stated, male wild type (C57BL/6J) mice weighing 20-25 gm and age 2-3 months were used. The mice were bred and housed at the Association for Assessment and Accreditation of Laboratory Animal Care, International-accredited LSUHSC-Shreveport animal resource facility and maintained according to the National Research Council's Guide for Care and Use of Laboratory Animals. All experimental protocols were approved by the LSU Institutional Animal Care and Use Committee. Sodium nitrite, sodium nitrate, phosphate buffered saline (PBS), and all other chemicals were purchased from Sigma Chemical (St. Louis, Mo.). Hind-Limb Ischemia Model. Hind limb ischemia was induced by ligating the left common femoral artery proximal to origin of profunda femoris artery according to Senthilkumar, A., Smith, R. D., Khitha, J., Arora, N., Veerareddy, S., Langston, W., Chidlow, J. H., Jr., Barlow, S. C., Teng, X., Patel, R. P., et al. 2007. Arterioscler Thromb Vase Biol 27:1947-1954. Mice were anesthetized with intraperitoneal injection of ketamine (100 mg/kg) and xylazine (8 mg/kg); surgery was performed […] aseptic conditions. The common femoral vein and femoral nerve were dissected away from the artery. Two ligatures were placed in the common femoral artery proximal to the profunda femoris artery and then transected between the two ligations. The incision was then closed and the ligation was immediately verified by laser Doppler measurement of tissue blood flow.
as §1
We examined the effect of a range of sodium nitrite doses on ischemic tissue blood flow in the mouse hind-limb ischemia model described in Example 1. Sodium nitrite was administered via intraperitoneal injection twice a day in a dose range of 8.25-3,300 μg/kg; 15 mice were used per treatment group. Blood flow was measured according the laser Doppler method of Example 1. Changes in ischemic tissue perfusion were determined by measuring ischemic limb blood flow which was divided by the respective contra-lateral non-ischemic limb blood flow to calculate a percent change for each animal.

Series [3] deals with endothelial cell proliferation in ischemic gastrocnemicus tissues. The experiment in a line: Endothelial cell proliferation (Ki67 staining) in gastrocnemius tissue. Type of series: in vivo, mouse (C57BL/6J). Particulars: day 3.
Text: as §2
The effect of sodium nitrite on endothelial cell proliferation in ischemic gastrocnemicus tissues was analyzed in the hind-limb ischemia model of Example 1.

Series [4] has as its system mouse hind-limb ischemia model. The series can be described thus: Vascular density (CD31/DAPI) of gastrocnemius muscle tissue. It is filed as in vivo, mouse (C57BL/6J).
Text: as §2
Arterioscler Thromb Vase Biol 27:1947-1954.

The test system of another series is cGMP. Particulars: 165 μg/kg; day 3 or 7. Here is the method: (§3) Measurement of Nitrite, NO Metabolite, Tissue cGMP, and eNOS Protein Levels. Nitrite and tissue NO metabolite levels tissue (nitrosothiol, C- or N-nitroso compounds, or iron-nitrosyl proteins which are collectively referred to SNO+XNO) whether were measured using chemiluminescence techniques according to Lang, J. D., Jr., Teng, X., Chumley, P., Crawford, J. H., Isbell, T. S., Chacko, B. K., Liu, Y., Jhala, N., Crowe, D. R., Smith, A. B., et al. 2007. J Clin Invest. 117:2583-2591. Gastrocnemius muscle tissue cGMP levels were determined using the cGMP ELISA from Cayman Chemical (Ann Arbor, Mich.) according to the manufacturer's directions. Specimens were collected within 2 min after injection of either PBS or sodium nitrite. Total eNOS protein levels in hind-limb tissue were determined by Western blot analysis.

The subject of series [5] is ischemic hind limb of Db/Db diabetic mice. Here is the method:
We evaluated the effect of sodium nitrite treatment on ischemic hind limb blood flow in a diabetic mouse model. Permanent femoral artery ligation was performed on the left hind limb of Db/Db diabetic mice (n=5 per treatment group) according to the methods in Examples 1 and 2, except that the mice were anesthetized with 2% inhaled isofluorane. […] Blood flow recovery was monitored throughout the study using deep tissue penetrating laser Doppler according to the method in Example 1.

Series [6] deals with mouse hind-limb ischemia model. Here is the method: Vascular casting. Hind limb vascular casting of ischemic limbs was performed using Microfil silicone injection MV120. Before vascular casting, papaverine (5 ng/ml) and adenosine (1 mg/ml) were given intravenously to increase perfusion of the casting resin. Briefly, the abdominal aorta proximal to the femoral artery bifurcation was ligated with 5.0 silk suture material and cannulated caudal to the ligation using PESO tubing held in place with a silk ligature. 400 μl of Microfil was infused into the aortic catheter and allowed to set in situ for 16 hours at 4° C. Hind limb muscle tissue was cleared by incubating tissues in graded glycerol solutions of 40%, 60%, 80%, and 100% for 24 hours each. Vascular casts were subsequently photographed using a stereomicroscope.
To further evaluate arteriogenesis activity, we performed hind-limb ligations distal to the profunda femoris and proximal to the knee to more easily distinguish changes in the arterial supply. […] Arterial casts were made according to the method in Example 1.

Another series deals with eNOS protein. Particulars: 165 μg/kg. Here is the method:
as §3
(§4) Analysis of blood and tissue nitrite levels in nitrate-treated and control animals was performed according to the method in Example 1.

How the values of series [7] were obtained: as §3, §4
In series [8] the test system is excisional wounds in C57BL/6J mice. The note with it: for percent wound surface remaining vs PBS-treated controls: 165 μg/kg I.P. b.i.d. Here is the method: Full thickness excisional wounds were created using a 4 mm punch biopsy device. C57BL/6J mice were anesthetized according to the method in Example 1. Wounds were created by pinching the loose skin and punching a half circle biopsy to obtain a uniform 4 mm diameter wound (n=4 per treatment group). […] Wound diameter was measured using digital calipers and plotted as the percent wound surface area remaining at each successive day.

The next series has as its system SNO+XNO. The note with it: 165 μg/kg. Here is the method: as §3
The effect of nitrite treatment on levels of the NO metabolites, SNO and XNO was measure according to the method in Example 1. Twenty mice were used per treatment group.

For series [9], the system named is ischemic hind limb of C57BL/6J mice. Particulars: 165 μg/kg I.P. b.i.d. started day 5 post-ligation. Here is the method:
We also evaluated the effect of delaying chronic sodium nitrite treatment on restoration of hind limb blood flow. Permanent femoral artery ligation was performed on the left hind limb of C57BL/6J mice (n=6 per treatment group) as described in Example 1. […] Blood flow recovery was monitored throughout the study using deep tissue penetrating laser Doppler as described in Example 1. […] “Day 0 Pre” on the x-axis refers to blood flow on the day of ligation before the ligation was performed; “Day 0 Post” on the x-axis refers to blood flow on the day of ligation after the ligation was performed.

Series [10] has the same test system. The note with it: 165 μg/kg single I.P. bolus 45 minutes after ligation; 7 day period. As to the method:
Permanent femoral artery ligation was performed on the left hind limb of C57BL/6J mice (n=3 per treatment group) according to the method in Example 1. A single bolus injection of either PBS or sodium nitrite (165 μg/kg) was given I.P. 45 minutes after completing the ligation. Blood flow recovery was monitored every other day over a 7 day period to evaluate the efficacy of single bolus injection therapy. […] “Day 0 Pre” on the x-axis refers to blood flow on the day of ligation before the ligation was performed; “Day 0 Post” on the x-axis refers to blood flow on the day of ligation after the ligation was performed.

On to `CC1(C)N([O])C(c2ccc(C(=O)O)cc2)=[N+]([O-])C1(C)C` [carboxy PTIO, 2-(4-Carboxyphenyl)-4,4,5,5-tetramethylimidazoline-1-oxyl-3-oxide, reference compound], for which the “effect of cPTIO on nitrite-dependent acute tissue blood flow change” value in series [1] (mouse, in vivo) is listed as “significantly blunted”. For the same compound, the “effect of NO scavenger on ability of sodium nitrite to restore ischemic limb blood flow” value in series [2] (carboxy PTIO 1 mg/kg daily plus sodium nitrite 165 μg/kg) was “significantly attenuated”. The “effect of cPTIO on nitrite-induced increase in Ki67 to CD31 colocalization” value in series [3] (cPTIO plus sodium nitrite, ischemic tissue) is listed as “blocked”. Further, the “effect of carboxy PTIO on nitrite-induced increase in Ki67 nuclear localization” value in series [3] (carboxy PTIO plus sodium nitrite, ischemic tissue) is reported as “blocked”. Besides, the “effect of cPTIO cotreatment on nitrite augmentation of angiogenesis in ischemic hind limbs” value in series [4] (cPTIO plus sodium nitrite 165 μg/kg, days 3 and 7) is listed as “prevented nitrite augmentation of angiogenesis”.

In the case of `O=[N+]([O-])[O-].[Na+]` [sodium nitrate, reference compound], the “ischemic limb blood flow” value in series [2] (lowest dose 8.25 μg/kg, by days 5 and 7) is “augmented ischemic limb blood flow”.

For `O=NO` [sodium nitrite], in [1] (165 μg/kg, days 3 and 7), the “acute blood flow change under chronic nitrite therapy” value is “lesser, yet still significant, increase”. For the same compound, the “acute enhancement of ischemic tissue blood flow” value in series [1] (mouse, in vivo) is on record as 92.3±18%. Moreover, the “duration of increased blood flow after injection” value in series [1] (mouse, in vivo) is recorded as over 10 min. In the series with cGMP, the “tissue cGMP levels” value was “neither 165 μg/kg sodium nitrite nor PBS significantly altered”. The “temporal efficacy on ischemic blood flow compared to higher and lower doses” value in series [2] (165 μg/kg i.p. twice a day) is given as “optimal temporal efficacy”. The “hind limb blood flow in the nonischemic limbs” value in [2] (165 μg/kg i.p., nonischemic limb) was “neither PBS nor sodium nitrite altered”. Besides, the “blood flow after injection in hind limbs ischemic for 24 h” value in series [2] (165 μg/kg injection) is recorded as “enhanced blood flow”. Also, the “percentage blood flow in ischemic hind limbs” value in series [2] (8.25, 16.5, 165 and 3,300 μg/kg i.p. twice a day, by day 3 post ligation, progressively increased by day 7, vs PBS) is listed as “increased the percentage blood flow”. For the same compound, the “ischemic hind-limb blood flow recovery in diabetic mice” value in [5] (165 μg/kg I.P. b.i.d. started post-ligation) is “restored”. The “blood flow in ischemic hind limbs vs PBS-treated controls” value in [5] (165 μg/kg I.P. b.i.d., all time points analyzed) is “significantly greater”. In addition, the “blood flow in ischemic hind limbs relative to preligation” value in [5] (165 μg/kg I.P. b.i.d., by the end of the study) is recorded as “approached preligation levels”. Besides, the “Ki67 nuclear localization (colocalization with DAPI)” value is “significantly increased” in series [3] (165 μg/kg, ischemic tissue) and “but not non-ischemic tissues” in series [3] (165 μg/kg, non-ischemic tissue). For the same compound, the “Ki67 to CD31 colocalization” value in series [3] (165 μg/kg, ischemic tissue) is “significantly increased”. For the same compound, the “endothelial staining of CD31 in ischemic muscle tissue” value in [4] (165 μg/kg, day 7, compared to PBS or sodium nitrate controls) was “much more abundant”. For the same compound, the “nonischemic tissue vascular density” value in [4] (165 μg/kg, day 7, nonischemic gastrocnemius) is on record as “did not significantly alter”. The “vascular density of ischemic gastrocnemius muscle” value in [4] (165 μg/kg, days 3 and 7, compared to PBS or sodium nitrate) is “significantly increased”. Moreover, in [4] (3,300 μg/kg compared to 165 μg/kg), the “augmentation of ischemic tissue vascular density, high dose vs low dose” value is recorded as “less potent”. Also, the “collateral vessels in arterial cast of ischemic limb” value in [6] (day 7, vascular casting) is reported as “Numerous collateral vessels”. Besides, the “number of arterial branch points” value in series [6] (ligation distal to profunda femoris, vs PBS-treated controls) was “significantly greater”. For the same compound, the eNOS protein expression result in the series with eNOS protein (day 3, ischemic hind-limb tissue) is on record as “significantly decreased”; in the series on eNOS protein (day 3, nonischemic hind-limb tissue), “without altering expression”; in the series with eNOS protein (day 7, ischemic tissue), “no effect”; in the series with eNOS protein (day 7, nonischemic tissue) it was “reduced”. Moreover, in series [7] (165 μg/kg chronic therapy, days 3 and 7), the “blood levels of nitrite” value is given as “significantly decreased over time”. Moreover, the tissue nitrite levels entry in series [7] (165 μg/kg, day 3, ischemic tissue) is “significantly increased”. Moreover, the “tissue nitrite levels, nitrite-treated vs PBS-treated” value in series [7] (165 μg/kg, day 7) is reported as “did not differ significantly”. The excision wound healing entry in series [8] (165 μg/kg I.P. b.i.d. from wounding, 4 mm wound) is listed as “enhanced”. In addition, the “percent wound surface remaining vs PBS-treated controls” value in series [8] (first six days of the study) is recorded as “significantly less”; in series [8] (remaining four days) it was “lower”. Also, in the series with SNO+XNO (day 3), the “tissue SNO+XNO levels” value was “Neither sodium nitrite (165 μg/kg) nor PBS significantly altered”. For the same compound, the “SNO+XNO levels in ischemic tissue” value with SNO+XNO (day 7, compared to PBS) is on record as “significantly increased”. The “ischemic hind limb blood flow recovery with delayed therapy” value in series [9] is recorded as “restored”. For the same compound, in series [10], the “ischemic hind limb blood flow recovery after single bolus” value is listed as “did not restore”.
